This is an account of results in the PolyMetriX glass transition set.

As to `*C(=O)Nc1ccc(-c2ccc(NC(=O)N3CC(C)N(*)CC3C)cc2)cc1` (repeat unit), the glass transition temperature was found to be 250.00 °C.
Under `*C/C=C/COC(=O)C(Cc1ccccc1)NC(=O)CCCCC(=O)NC(Cc1ccccc1)C(=O)O*` (repeat unit) stands 61.00 °C; under `*CC(F)(F)C(F)(F)C(F)(F)COC(=O)CCCCC(=O)O*` (repeat unit), -60.50 °C.
To `*CC(O)COC(=O)CCCCC(=O)OCC(O)COc1ccc(C(=O)Oc2ccc(O*)cc2)cc1` (repeat unit) belongs 37.00 °C; to `*CC1CCC(CNC(=O)CCCCC(=O)N*)CC1` (repeat unit), 113.00 °C.
Under `*CCCC(*)(C)C` (repeat unit) stands -20.00 °C.
For the compound `*CCCC1(C)CCN(C(=O)CCC(=O)N2CCC(*)(C)CC2)CC1` (repeat unit), the glass transition temperature amounted to 99.00 °C.
The compound `*CCCC1(C)CCN(C(=O)CCCC(=O)N2CCC(*)(C)CC2)CC1` (repeat unit) came in with a glass transition temperature of 58.00 °C.
To `*CCCCCCCCCCNC(=O)CCCCC(=O)N*` (repeat unit) belongs 45.00 °C; to `*CCCCCCCCCCOC(=O)CCCCCNC(=O)CCCCC(=O)NCCCCCC(=O)O*` (repeat unit), -12.00 °C; to `*CCCCCCCCc1nc2cc(NC(=O)CCCCC(=O)Nc3ccc4oc(*)nc4c3)ccc2o1` (repeat unit), 92.00 °C.
Under `*CCCCOC(=O)CCCCC(=O)OCCCCOC(=O)c1ccc(C(=O)O*)cc1` (repeat unit) stands -20.00 °C.
On to `*CCCCOC(=O)CCCCCNC(=O)CCCCC(=O)NCCCCCC(=O)O*` (repeat unit), for which the glass transition temperature is -15.00 °C.
Compound `*CCCNC(=O)CCCCC(=O)NCCCO*` (repeat unit) came in with a glass transition temperature of 34.00 °C.
Under `*CCCP(CCCNC(=O)CCCCC(=O)N*)c1ccccc1` (repeat unit) stands 49.00 °C; under `*CCNC(=O)CCCCC(=O)N*` (repeat unit), 71.00 °C; under `*CNC(=O)CCCCC(=O)NCC1COC(*)CO1` (repeat unit), 93.00 °C.
Under `*Nc1ccc(-c2ccc(NC(=O)c3cc(NC(=O)c4ccncc4)cc(C(*)=O)c3)cc2)cc1` (repeat unit) stands 339.00 °C; under `*Nc1ccc(CCNC(=O)CCCCC(*)=O)cc1` (repeat unit), 115.00 °C; under `*Nc1cccc(NC(=O)CCCCC(*)=O)c1` (repeat unit), 114.2 °C.
To `*Nc1cccc(NC(=O)CCCCC(=O)Nc2ccc(C(=O)NC(*)=S)cc2)c1` (repeat unit) belongs 267.00 °C; to `*OC(=O)C(Cc1ccccc1)NC(=O)CCCCC(=O)NC(Cc1ccccc1)C(=O)OC1COC2C(*)COC12` (repeat unit), 97.50 °C.
For `*OC(C)CCCCC(*)=O` (repeat unit), the glass transition temperature was -40.00 °C.
Under `*OC1CCC(OC(=O)CCCCC(*)=O)CC1` (repeat unit) stands 77.80 °C; under `*O[Si](C)(C)CCCC(=O)Oc1ccc(/C=N/c2ccc(/N=C/c3ccc(OC(=O)CCC[Si](*)(C)C)cc3)cc2)cc1` (repeat unit), 60.00 °C; under `*O[Si](C)(C)CCCC(=O)Oc1ccc(/C=N/c2ccc(Oc3ccc(/N=C/c4ccc(OC(=O)CCC[Si](*)(C)C)cc4)cc3)cc2)cc1` (repeat unit), 52.00 °C.
To `*Oc1ccc(NC(=O)CCCCC(=O)Nc2ccc(OC3COC4C(*)COC34)cc2)cc1` (repeat unit) belongs 150.00 °C; to `*c1ccc(NC(=O)CCCCC(=O)Nc2ccc(S(*)(=O)=O)cc2)cc1` (repeat unit), 194.00 °C.
Under `*c1cccc(NC(=O)CCCCC(=O)Nc2cccc(S(*)(=O)=O)c2)c1` (repeat unit) stands 140.00 °C.
